Measured values reported in patent US7811797B2, “α-isomaltosylglucosaccharide-forming enzyme, process and uses of the same” (Kabushiki Kaisha Hayashibara Seibutsu Kagaku Kenkyujo, priority 2000, dated 2010).
Like-named read-outs stand apart in the source and are kept apart here.

Columns and labels:
[1] = test system: α-isomaltosylglucosaccharide-forming enzyme; test: Influence of metal ions on the activity of α-isomaltosylglucosaccharide-forming enzyme (Strain C11); format: biochemical, Bacillus globisporus C11; conditions: for influence on the enzyme activity, in words: 1 mM; for Relative activity (%): 1 mM of each metal-ion
Protocol: (§1) One unit activity of the α-isomaltosylglucosaccharide-forming enzyme is defined as the enzyme amount that forms one micromole of maltose per minute under the above enzymatic reaction conditions. Throughout the specification, the enzymatic activity of the α-isomaltosylglucosaccharide-forming enzyme means the unit(s) assayed as above.
The influence of metal ions on the activity of α-isomaltosylglucosaccharide forming enzyme was examined in the presence of 1 mM of each metal-ion according to the assay for the enzyme activity.

[2] = test system: α-isomaltosylglucosaccharide-forming enzyme; test: Influence of metal ions on the activity of α-isomaltosylglucosaccharide-forming enzyme (Strain A19); format: biochemical, Arthrobacter globiformis A19; conditions: for Relative activity (%): 1 mM of each metal-ion
[3] = test system: α-isomaltosyl-transferring enzyme; test: Influence of metal ions on the activity of α-isomaltosyl-transferring enzyme (Strain N75); format: biochemical, Bacillus globisporus N75; conditions: for influence on the enzyme activity, in words: 1 mM; for Relative activity (%): 1 mM of each metal-ion
Protocol: (§2) The α-isomaltosyl-transferring enzyme was assayed for enzymatic activity by dissolving panose in 100 mM acetate buffer (pH 6.0) to give a concentration of 2% (w/v) for a substrate solution, adding a 0.5 ml of an enzyme solution to 0.5 ml of the substrate solution, enzymatically reacting the mixture solution at 35° C. for 30 min, suspending the reaction mixture by boiling for 10 min, and quantifying glucose, among the cyclotetrasaccharide and glucose formed in the reaction mixture, by the glucose oxidase method. One unit activity of the α-isomaltosyl-transferring enzyme is defined as the enzyme amount that forms one micromole of glucose per minute under the above enzymatic reaction conditions. Throughout the specification, the enzymatic activity of the α-isomaltosyl-transferring enzyme means the unit(s) assayed as above.
(§3) The influence of metal ions on the activity of α-isomaltosyl-transferring enzyme was examined in the presence of 1 mM of each metal-ion according to the assay for the enzyme activity.

[4] = test system: α-isomaltosylglucosaccharide-forming enzyme; test: Influence of metal ions on the activity of α-isomaltosylglucosaccharide-forming enzyme (Strain C9); format: biochemical, Bacillus globisporus C9; conditions: for influence on the enzyme activity, in words: 1 mM; for Relative activity (%): 1 mM of each metal-ion
Protocol: as §1
(§4) The influence of metal ions on the activity of α-isomaltosylglucosaccharide-forming enzyme was examined in the presence of 1 mM of each metal-ion according to the assay for the enzyme activity.

[5] = test system: α-isomaltosyl-transferring enzyme; test: Influence of metal ions on the activity of α-isomaltosyl-transferring enzyme (Strain S1); format: biochemical, Arthrobacter ramosus S1; conditions: for Relative activity (%): 1 mM of each metal-ion
Protocol: as §2, §3

[6] = test system: α-isomaltosylglucosaccharide-forming enzyme; test: Influence of metal ions on the activity of α-isomaltosylglucosaccharide-forming enzyme (Strain N75); format: biochemical, Bacillus globisporus N75; conditions: for influence on the enzyme activity, in words: 1 mM; for Relative activity (%): 1 mM of each metal-ion
Protocol: as §1, §4

[7] = test system: α-isomaltosyl-transferring enzyme; format: biochemical, Bacillus globisporus C11; conditions: for Relative activity (%): 1 mM of each metal-ion
Protocol: as §2, §3

[8] = test system: α-isomaltosyl-transferring enzyme; test: Influence of metal ions on the activity of α-isomaltosyl-transferring enzyme (Strain C9); format: biochemical, Bacillus globisporus C9; conditions: for influence on the enzyme activity, in words: 1 mM; for Relative activity (%): 1 mM of each metal-ion
Protocol: as §2, with “above. […]” for “above.”

Compound | influence on the enzyme activity, in words [1] | Relative activity (%) [1] | influence on the enzyme activity, in words ([2]; 1 mM) | Relative activity (%) [2] | influence on the enzyme activity, in words [3] | Relative activity (%) [3] | influence on the enzyme activity, in words [4] | Relative activity (%) [4] | influence on the enzyme activity, in words ([5]; 1 mM) | Relative activity (%) [5] | influence on the enzyme activity, in words [6] | Relative activity (%) [6] | influence on the enzyme activity, in words ([7]; 1 mM) | Relative activity (%) [7] | influence on the enzyme activity, in words [8] | Relative activity (%) [8]
[Hg+2] [Hg^2+] | greatly inhibited | 4% | greatly inhibited | 0% | greatly inhibited | 0.5% | greatly inhibited | 4% | greatly inhibited | 0.1% | greatly inhibited | 1% | greatly inhibited | 2% | greatly inhibited | 1%
[Ca+2] [Ca^2+] | activated | 109% |  | 106% | not activated | 100% |  | 115% |  | 103% | activated | 108% |  | 91% | not activated | 101%
[Ba+2] [Ba^2+] | also inhibited | 65% |  | 99% |  | 102% | also inhibited | 65% |  | 97% |  | 84% |  | 90% |  | 102%
